# Reference: patent US8058444B2, “Heterocycle-substituted pyridine derivative's salt or crystal thereof” (Eisai R&D Management Co., Ltd., priority 2007, dated 2011)
# Where a name gives a salt, the structure may show the parent alone.
# Tested on: C. albicans E81022 strain
# Assay: Experimental systemic candidal infection model in mice
# Format: in vivo
# Settings: peroral (into the stomach), female ICR mice infected i.v. with C. albicans E81022, observed until 14 days after infection
# Procedure: 1. Experimental Systemic Candidal Infection Model in Mice
# A standing culture of C. albicans E81022 strain was carried out for 48 hours at 30° C in sabouraud dextrose agar medium (SDA), the recovered fungal cells were suspended in sterilized physiological saline. By counting the fungal number on cytometry plate, the suspension was diluted to 2×10^7 cells/mL with sterilized physiological saline to serve fungal inoculum.
# The fungal inoculum was used in the amounts of 0.2 mL to inoculate 4.5 to 5.5 week-old female ICR mice in the tail vein (4×10^6 cells/mouse).
# From 0.5 and 1 hours after fungal inoculation, 0.2 mL of agent solution (compound of Reference Example 1 dissolved to 5 mg/ml in 50 mM hydrochloric acid, diluted suitably in sterile water, and then, diluted 10-fold in 5% fructose solution) was administered into the stomach using a peroral probe twice every 6 hours. […]
# The protective effect was determined by observing lifeldeath until 14 days after infection and calculating the mean survival days.
structure (smiles),measurement,setting,value
"Nc1ncccc1-c1cc(Cc2ccc(COc3ccccn3)cc2)no1 [Hydrochloride of Reference Example 1, 3-(3-(4-(Pyridin-2-yloxymethyl)-benzyl)-isoxazol-5-yl)-pyridin-2-yl amine]",Mean Survival Days,2.5 mg/kg,11.0 days
same,Mean Survival Days,5 mg/kg,13.4 days
